Here are results for 7 compounds from paper PMC10653066 (ACS Omega, 2023).

Where two headings read alike, the source gives them in different places.

Experiment [1] relates to YFV 17D. The experiment in a line: microbe, parasite or virus in culture. The following applies: for EC50: Yellow fever virus, Huh-7, read-out: EC50 (YFV 17D, μM). It is filed as cell-based, Yellow fever virus.
Experiment [2] relates to YFV 17D. As to conditions: read-out: EC50 against YFV; cited from earlier work.

Turning to `N#Cc1c(Nc2ccc(Cl)cc2)n[nH]c1NS(=O)(=O)c1ccc2ccccc2c1` [RCB16002, N-(3-((4-Chlorophenyl)amino)-4-cyano-1H-pyrazol-5-yl)naphthalene-2-sulfonamide], the EC50 in experiment [1] is 7.1 µM.
In the case of `COc1ccc(Nc2nc(N)n(S(=O)(=O)c3cccc4ccccc34)n2)cc1` [RCB16086, N^3-(4-Methoxyphenyl)-1-(naphthalen-1-ylsulfonyl)-1H-1,2,4-triazole-3,5-diamine], the “activity against YFV (words, SAR discussion)” value in experiment [1] is recorded as “complete loss of potency”.
In the case of `N#Cc1c(Nc2ccc(F)cc2)n[nH]c1NS(=O)(=O)c1ccc2ccccc2c1` [RCB16003, N-(4-Cyano-3-((4-fluorophenyl)amino)-1H-pyrazol-5-yl)naphthalene-2-sulfonamide], the EC50 in experiment [2] was 3.2 µM.
Turning to “4-((1-((6-Acetylnaphthalen-1-yl)sulfonyl)-5-amino-1H-1,2,4-triazol-3-yl)amino)benzonitrile [RCB22056]”, the “activity against YFV (words, SAR discussion)” value in experiment [1] is “inactive”.
Same read-out and setting: then `CC(=O)c1ccc2c(S(=O)(=O)n3nc(Nc4ccc(C#N)c(Cl)c4)nc3N)cccc2c1` [RCB22055, 4-((1-((6-Acetylnaphthalen-1-yl)sulfonyl)-5-amino-1H-1,2,4-triazol-3-yl)amino)-2-chlorobenzonitrile], with “low micromolar activity”.
Still for that read-out and setting: for `Nc1nc(Nc2ccc(Cl)c(Cl)c2)n(S(=O)(=O)c2ccc3ccccc3c2)n1` [RCB17160, N^5-(3,4-Dichlorophenyl)-1-(naphthalen-2-ylsulfonyl)-1H-1,2,4-triazole-3,5-diamine] the value was “did not display any activity”.
For `N#Cc1c(Nc2ccc(F)c(F)c2)n[nH]c1NS(=O)(=O)c1ccc2ccccc2c1` [RCB16004, N-(4-Cyano-3-((3,4-difluorophenyl)amino)-1H-pyrazol-5-yl)naphthalene-2-sulfonamide], in experiment [1], the EC50 is more than 36 µM.

By EC50 is commonly meant the concentration giving half of the maximal effect.
